Laboratory results from patent US20050155119A1, “Chlorophyllous totipotent cell cultures” (Dow AgroSciences LLC, priority 2004, published 2005).

Legend:
rice = conditions: in vivo; cited from earlier work
maize = conditions: in vivo; cited from earlier work
green suspension cells = assay: Response of the green maize suspension to streptomycin and spectinomycin; type: cell-based
Halophila ovalis = conditions: 10 mg/l of Zn (153 μm); cited from earlier work
Brassica juncea = conditions: 100 mg Zn/l (1529 μm) added to soil mixtures; cited from earlier work
PS-II electron transport = assay: Oxygen electrode determination of photosynthetic electron transport with diuron; type: cell-based, maize
Protocol: The oxygen electrode was set up per manufacturer's instructions by covering the silver electrode with layers of KCl solution, cigarette paper, and PTFE gas permeable membrane. The circulating water bath used to maintain a constant temperature of 24° C. during the course of the experiments. An experiment was initiated by the addition of 1 mL of suspension containing 100 mg of the green suspension cells to the electrode chamber. Oxygen uptake within the chamber was limited by the insertion of a plunger to the level of the liquid, and the flea magnet was turned on to assure adequate mixing during each experiment. Data points were collected by LabVIEW 5.1 and sent to an EXCEL spreadsheet. Data points were collected at a rate of 0.2/sec over 70 scans. […]
Photosynthetic electron transport was measured with an oxygen electrode in the absence and presence of diuron (DCMU), a PS-II electron transport inhibitor at several concentrations (Figure below). […] A light intensity of 225 μmol M^−2 S^−1 photosynthetic photon flux density was used to drive electron transport, and oxygen evolution was measured polarographically.
Whether or not Diuron treatment lead to inhibition of oxygen was investigated using an oxygen electrode. To determine amount of photosynthesis occurring in the cells, respiration rates were measured with and without the exposure of the cells to a strong light source. […]

Q: Which “critical Cu toxicity level” value (rice) does the source give for `[Cu]` [Cu, Copper] here?
A: 20 mg/kg

Q: What about the “No Observable Adverse Effect Level (tissue concentration that did not decrease top growth)” value (maize) of the same compound?
A: 40 mg/kg

Q: What about the “critical Cu toxicity level” value (maize) of the same compound?
A: 20 mg/kg

Q: What about the “critical level of Cu” value (maize) of the same compound?
A: 21 mg/kg

Q: For `[H]/N=C(/N)N[C@H]1[C@H](O)[C@@H](O)[C@H](O[C@@H]2O[C@@H](C)[C@](O)(C=O)[C@H]2O[C@@H]2O[C@@H](CO)[C@H](O)[C@@H](O)[C@@H]2NC)[C@@H](N/C(N)=N\[H])[C@@H]1O` [Streptomycin], which “plants recovered when germinated in Streptomycin-containing medium” value (green suspension cells; 62.5 mg/L) is on record?
A: albino plants were recovered

Q: What about the bleaching of cells (green suspension cells; 125 mg/L) of the same compound?
A: fully bleached

Q: And the “plants recovered when germinated in Streptomycin-containing medium” value (green suspension cells; 125 mg/l (FIG. 2 legend))?
A: albino plants were recovered

Q: And the bleaching of cells (green suspension cells; 250 mg/L (FIG. 2 legend))?
A: partially bleached

Q: And the appearance of cells (green suspension cells; 500 mg/L)?
A: excessive browning and necrosis

Q: What about the “growth and appearance of green suspension cells” value (green suspension cells; 500 mg/l, after ~4 weeks) of the same compound?
A: growth was inhibited, and the cells were bleached or browned and showed excessive necrosis

Q: With `[Zn]` [Zn, Zinc] as the compound, how does the total chlorophyll concentrations (Halophila ovalis) read?
A: increase in total chlorophyll concentrations

Q: What about the phytotoxicity (Brassica juncea) of the same compound?
A: not phytotoxic

Q: Which “concentration with greater effect of inhibiting the light reaction of photosynthesis” value (PS-II electron transport; 100 mg green suspension in 1 mL, illuminated, oxygen electrode) does the source give for `CN(C)C(=O)Nc1ccc(Cl)c(Cl)c1` [diuron] here?
A: 0.01 M

Q: And the “effect on light induced oxygen evolution” value (PS-II electron transport; green suspension, FIG. 4)?
A: cut down the light induced oxygen evolution

Q: For `CN[C@@H]1[C@H](O)[C@H](NC)[C@H]2O[C@@]3(O)C(=O)C[C@@H](C)O[C@H]3O[C@@H]2[C@H]1O` [spectinomycin], which “response of the green suspension” value (green suspension cells; various spectinomycin concentrations) is on record?
A: did not respond
